Reference: patent publication US20020137929A1, “1 - (3-heterocyclylphenyl) isothiourea, -isourea, -guanidine and -amidine herbicidal agents” (Intellectual Property Department, BASF Aktiengesellschaft, priority 1998, published 2002)

Key:
GALAP (Galium) = experiment: Preemergence herbicidal evaluation; format: in vivo, Galium aparine; conditions: rated 4-5 weeks after treatment
Method in brief: (§1)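 Scores (0–9) reflect visual comparison with control plants for stand, vigor, malformation, size and chlorosis. Compound was applied to the soil after sowing, before emergence, as an aqueous acetone spray (about 0.0156–0.500 kg/ha), and cups were kept in a greenhouse for 4–5 weeks.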

ZEAMX (Corn, Field) = experiment: Preemergence herbicidal evaluation; format: in vivo, Zea mays; conditions: rated 4-5 weeks after treatment
Method in brief: as §1

ORYSAT (Rice, Tebonnet) [1] = experiment: Postemergence herbicidal evaluation; format: in vivo, Oryza sativa, (L.) Tebonnet
Method in brief: (§2)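 Rate range approx. 0.0156–0.500 kg/ha. Foliar application at 40 psi to ~2-week seedlings; surfactant 0.5% TWEEN 20 in 50/50 acetone/water. Evaluation 4–5 wk post-treatment by 0–9 visual injury score, means of replicate tests.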

CYPSE (Flatsedge) = experiment: Postemergence weed control under flooded paddy conditions; format: in vivo, Cyperus serotinus; conditions: postemergence weeds, 3-4 weeks after treatment
Method in brief: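 Weeds 3 to 5 cm tall and rice seedlings at the 1.5 to 2.5 leaf stage were flooded, with water held 1.5 to 3 cm above the soil. Compounds in 50/50 v/v aqueous/acetone went into the flood water at about 0.0313 to 0.500 kg/ha. Visual 0-9 ratings versus control were made 3 to 4 weeks later.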

MOOVA (Monochoria) = experiment: Preemergence weed control under flooded paddy conditions; format: in vivo, Monochoria vaginalis; conditions: rated 3-4 weeks after treatment
Method in brief: (§3)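 Visual injury scored 0-9 against control three to four weeks post-treatment, greenhouse-grown. Application: acetone/water (50/50) solutions dosed directly into flood water (1.5-3 cm over silt loam, planted top 0.5 cm), roughly 0.0313 to 0.500 kg/ha active ingredient.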

CYPIR (Rice Flatsedge) = experiment: as above; format: in vivo, Cyperus iria; conditions: rated 3-4 weeks after treatment
Method in brief: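 Silt loam, seeds in top 0.5 cm; flood held 1.5-3 cm; test cpd as acetone/water 50/50 into flood water, ~0.0313-0.500 kg/ha a.i.; greenhouse 3-4 wk; visual 0-9 score vs control.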

CASOB (Sicklepod) = experiment: Postemergence herbicidal evaluation; format: in vivo, Cassia obtusifolia
Method in brief: as §2

[2] = tested on: GLXMAW (Soybean, Williams); experiment: Preemergence herbicidal evaluation; format: in vivo, Glycine max, (L.) Merr. cv Williams; conditions: rated 4-5 weeks after treatment
Method in brief: as §1

[3] = tested on: SAGPY (Arrowhead (Pygmaea)); experiment: Preemergence weed control under flooded paddy conditions; format: in vivo, Sagittaria pygmaea; conditions: rated 3-4 weeks after treatment
Method in brief: as §3

ECHCG (Barnyardgrass) = experiment: Postemergence herbicidal evaluation; format: in vivo, Echinochloa crus-galli
Method in brief: as §2

ORYSAT (Rice, Tebonnet) [4] = experiment: Preemergence herbicidal evaluation; format: in vivo, Oryza sativa, (L.) Tebonnet; conditions: rated 4-5 weeks after treatment
Method in brief: as §1

SETVI (Foxtail, Green) = experiment: Preemergence herbicidal evaluation; format: in vivo, Setaria viridis; conditions: rated 4-5 weeks after treatment
Method in brief: as §1

[5] = tested on: CHEAL (Lambsquarters, Common); experiment: Postemergence herbicidal evaluation; format: in vivo, Chenopodium album
Method in brief: as §2

[6] = tested on: TRZAWR (Wheat, Winter, cv Riband); experiment: Preemergence herbicidal evaluation; format: in vivo, Triticum aestivum; conditions: rated 4-5 weeks after treatment
Method in brief: as §1

CCOC(=O)CN1C(=O)C(CC(=O)OC)S/C1=N/c1cc(-n2c(=O)cc(C(F)(F)F)n(C)c2=O)c(F)cc1Cl (centres unmarked) [Compound 54, 2-{{2-Chloro-5-[3,6-dihydro-3-methyl-2,6-dioxo-4-(trifluoromethyl)-1(2H)-pyrimidinyl]-4-fluorophenyl}imino}-4-oxo-3,5-thiazolidinediacetic acid, 3-ethyl methyl ester]
Preemergence herbicidal rating GALAP (GALAP (Galium); rate 0.0156 kg/ha): 0.0 | Preemergence herbicidal rating GALAP (GALAP (Galium); rate 0.0313 kg/ha): 0.0 | Preemergence herbicidal rating GALAP (GALAP (Galium); rate 0.0625 kg/ha): 0.0 | Preemergence herbicidal rating GALAP (GALAP (Galium); rate 0.1250 kg/ha): 9.0 | Preemergence herbicidal rating GALAP (GALAP (Galium); rate 0.2500 kg/ha): 9.0 | Preemergence herbicidal rating ZEAMX (ZEAMX (Corn, Field); rate 0.0156 kg/ha): 0.0 | Preemergence herbicidal rating ZEAMX (ZEAMX (Corn, Field); rate 0.0313 kg/ha): 1.0 | Preemergence herbicidal rating ZEAMX (ZEAMX (Corn, Field); rate 0.0625 kg/ha): 1.0 | Preemergence herbicidal rating ZEAMX (ZEAMX (Corn, Field); rate 0.1250 kg/ha): 2.0 | Preemergence herbicidal rating ZEAMX (ZEAMX (Corn, Field); rate 0.2500 kg/ha): 4.0 | Preemergence herbicidal rating ZEAMX (ZEAMX (Corn, Field); rate 0.5000 kg/ha): 3.0 | Postemergence herbicidal rating ORYSAT (ORYSAT (Rice, Tebonnet) [1]; Rate 0.0158 kg/ha): 3.0 | Postemergence herbicidal rating ORYSAT (ORYSAT (Rice, Tebonnet) [1]; Rate 0.0315 kg/ha): 3.0 | Postemergence herbicidal rating ORYSAT (ORYSAT (Rice, Tebonnet) [1]; Rate 0.0630 kg/ha): 6.5 | Herbicidal rating CYPSE (CYPSE (Flatsedge); rate 0.0313 kg/ha): 0.0 | Herbicidal rating CYPSE (CYPSE (Flatsedge); rate 0.0625 kg/ha): 0.0 | Herbicidal rating CYPSE (CYPSE (Flatsedge); rate 0.1250 kg/ha): 0.0 | Herbicidal rating CYPSE (CYPSE (Flatsedge); rate 0.2500 kg/ha): 4.0 | Herbicidal rating MOOVA (MOOVA (Monochoria); 0.0313 kg/ha): 0.0 | Herbicidal rating MOOVA (MOOVA (Monochoria); 0.0625 kg/ha): 0.0 | Herbicidal rating MOOVA (MOOVA (Monochoria); 0.1250 kg/ha): 6.0 | Herbicidal rating MOOVA (MOOVA (Monochoria); 0.2500 kg/ha): 6.0 | Herbicidal rating CYPIR (CYPIR (Rice Flatsedge); 0.0313 kg/ha): 0.0 | Herbicidal rating CYPIR (CYPIR (Rice Flatsedge); 0.0625 kg/ha): 4.0 | Herbicidal rating CYPIR (CYPIR (Rice Flatsedge); 0.1250 kg/ha): 4.0 | Herbicidal rating CYPIR (CYPIR (Rice Flatsedge); 0.2500 kg/ha): 4.0 | Postemergence herbicidal rating CASOB (CASOB (Sicklepod); Rate 0.0158 kg/ha): 5.0 | Postemergence herbicidal rating CASOB (CASOB (Sicklepod); Rate 0.0315 kg/ha): 6.0 | Postemergence herbicidal rating CASOB (CASOB (Sicklepod); Rate 0.0630 kg/ha): 9.0 | Preemergence herbicidal rating GLXMAW ([2]; rate 0.0156 kg/ha): 0.0 | Preemergence herbicidal rating GLXMAW ([2]; rate 0.0313 kg/ha): 0.5 | Preemergence herbicidal rating GLXMAW ([2]; rate 0.0625 kg/ha): 1.5 | Preemergence herbicidal rating GLXMAW ([2]; rate 0.1250 kg/ha): 3.0 | Preemergence herbicidal rating GLXMAW ([2]; rate 0.2500 kg/ha): 7.5 | Preemergence herbicidal rating GLXMAW ([2]; rate 0.5000 kg/ha): 9.0 | Herbicidal rating SAGPY ([3]; 0.0313 kg/ha): 0.0 | Herbicidal rating SAGPY ([3]; 0.0625 kg/ha): 0.0 | Herbicidal rating SAGPY ([3]; 0.1250 kg/ha): 0.0 | Herbicidal rating SAGPY ([3]; 0.2500 kg/ha): 2.0 | Postemergence herbicidal rating ECHCG (ECHCG (Barnyardgrass); Rate 0.0158 kg/ha): 9.0 | Postemergence herbicidal rating ECHCG (ECHCG (Barnyardgrass); Rate 0.0315 kg/ha): 9.0 | Postemergence herbicidal rating ECHCG (ECHCG (Barnyardgrass); Rate 0.0630 kg/ha): 9.0 | Preemergence herbicidal rating ORYSAT (ORYSAT (Rice, Tebonnet) [4]; rate 0.0156 kg/ha): 0.0 | Preemergence herbicidal rating ORYSAT (ORYSAT (Rice, Tebonnet) [4]; rate 0.0313 kg/ha): 0.0 | Preemergence herbicidal rating ORYSAT (ORYSAT (Rice, Tebonnet) [4]; rate 0.0625 kg/ha): 1.0 | Preemergence herbicidal rating ORYSAT (ORYSAT (Rice, Tebonnet) [4]; rate 0.1250 kg/ha): 2.0 | Preemergence herbicidal rating ORYSAT (ORYSAT (Rice, Tebonnet) [4]; rate 0.2500 kg/ha): 4.5 | Preemergence herbicidal rating ORYSAT (ORYSAT (Rice, Tebonnet) [4]; rate 0.5000 kg/ha): 6.0 | Preemergence herbicidal rating SETVI (SETVI (Foxtail, Green); rate 0.0156 kg/ha): 1.0 | Preemergence herbicidal rating SETVI (SETVI (Foxtail, Green); rate 0.0313 kg/ha): 2.0 | Preemergence herbicidal rating SETVI (SETVI (Foxtail, Green); rate 0.0625 kg/ha): 3.5 | Preemergence herbicidal rating SETVI (SETVI (Foxtail, Green); rate 0.1250 kg/ha): 7.0 | Preemergence herbicidal rating SETVI (SETVI (Foxtail, Green); rate 0.2500 kg/ha): 9.0 | Preemergence herbicidal rating SETVI (SETVI (Foxtail, Green); rate 0.5000 kg/ha): 9.0 | Postemergence herbicidal rating CHEAL ([5]; Rate 0.0158 kg/ha): 9.0 | Postemergence herbicidal rating CHEAL ([5]; Rate 0.0315 kg/ha): 9.0 | Postemergence herbicidal rating CHEAL ([5]; Rate 0.0630 kg/ha): 9.0 | Preemergence herbicidal rating TRZAWR ([6]; rate 0.0156 kg/ha): 0.0 | Preemergence herbicidal rating TRZAWR ([6]; rate 0.0313 kg/ha): 0.0 | Preemergence herbicidal rating TRZAWR ([6]; rate 0.0625 kg/ha): 0.0 | Preemergence herbicidal rating TRZAWR ([6]; rate 0.1250 kg/ha): 1.0 | Preemergence herbicidal rating TRZAWR ([6]; rate 0.2500 kg/ha): 3.0
